Assay results from patent US20200102353A1, “HUMAN ENDOGENOUS RETROVIRAL PROTEIN” (priority 2017, published 2020).

How the values were obtained:
[1] = tested on: HEMO release in the supernatant; assay: Inhibition of HEMO release (shedding) in supernatant of phCMV-HEMO transfected 293T cells, Western blot; assay type: cell-based, human; details: 293T cells transfected with phCMV-HEMO, treated 3 days, BATIMASTAT 0.1 to 10 μM, MARIMASTAT 0.1 to 10 μM, GM6001 1 to 50 μM
Procedure: For treatment with metalloprotease inhibitors, 5×10^5 293T cells were seeded in 6-well dishes with 2 mL/well of culture medium. One day after seeding, cells were transiently transfected using 1.5 μg phCMV-HEMO plasmid and 4.5 μL Lipofectamine LTX (THERMOFISHER) per well. One day post-transfection, cells were incubated with culture medium supplemented with the indicated concentrations of metalloprotease inhibitors (CALBIOCHEM): BATIMASTAT (0.1 to 10 μM), MARIMASTAT (0.1 to 10 μM) or GM6001 (1 to 50 μM). Medium with inhibitors was replenished for 2 other days, and supernatants were collected and filtered through 0.45 μm MILLIPORE filters one day later. Cells were harvested the same day for protein analysis.
Samples, cell supernatants or cell lysates were analyzed by SDS/PAGE on gradient precast gels (NuPAGE NOVEX 4-12% Bis-Tris gels, LIFE TECHNOLOGIES), and transfer onto nitrocellulose membranes using a semi-dry transfer system. […] Proteins were detected by using an enhanced chemiluminescence system (ECL, PIERCE).

HEMO gene = assay: Effect of DNA demethylation on HEMO gene expression, RT-qPCR; assay type: cell-based, human; details: for dose at which HEMO transcripts were detectable by qRT-PCR: 3-day treatment, doses 0.1 to 5 μM
Procedure: For treatment with 5-Aza-2′-deoxycytidine (5-Aza-dC; SIGMA-ALDRICH), 2×10^5 BeWo and 293T cells were plated in 6-well dishes. Doses ranging from 0.1 to 5 μM of 5-Aza-dC were then added to the culture for 3 days, with fresh medium each day. Cells were harvested for RNA extraction one day later.
Total RNAs from human tissues and cells were either purchased from ZYAGEN (San Diego), or isolated using the RNAeasy Isolation Kit (QIAGEN) according to the manufacturer's instructions, and treated with Dnase I (AMBION). Reverse transcription was performed with 1 μg of RNA using the MLV reverse-transcriptase (APPLIED BIOSYSTEMS). Real-time quantitative PCR was carried out with 5 μl of diluted (1:20) cDNA in a final volume of 25 μl by using SYBR green PCR master mix (QIAGEN). qPCR was carried out with an ABI Prism 7000 sequence detection system, using primers listed in Table 4 above. Transcript levels were normalized relative to the amount of a housekeeping gene (RPLPO or G6PD) mRNA. Samples were assayed in duplicate.

Row | SMILES | HEMO release in the supernatant [1] | dose at which HEMO transcripts were detectable by qRT-PCR (HEMO gene; 293T cells) [µM] | dose at which HEMO transcripts were detectable by qRT-PCR (HEMO gene; BeWo cells) [µM] | HEMO gene transcript level after treatment (HEMO gene; CaCo-2 cells (HEMO-expressing), similar 5-Aza-dC treatment)
1 | CNC(=O)[C@@H](NC(=O)[C@H](CC(C)C)[C@H](O)C(=O)NO)C(C)(C)C [MARIMASTAT] | clearly inhibited HEMO release in the supernatant | – | – | –
2 | CNC(=O)[C@H](Cc1c[nH]c2ccccc12)NC(=O)[C@@H](CC(=O)NO)CC(C)C [GM6001] | clearly inhibited HEMO release in the supernatant | – | – | –
3 | Nc1ncn([C@H]2C[C@H](O)[C@@H](CO)O2)c(=O)n1 [5-Aza-dC, 5-Aza-2′-deoxycytidine] | – | 5 | 0.1 | not further amplified
